Source: patent EP3134439B1, “ANTI-PSYK ANTIBODY MOLECULES AND USE OF SAME FOR SYK-TARGETED THERAPY” (Millennium Pharmaceuticals, Inc., priority 2014, dated 2015)
Marks after values point to notes of the source that are not given here.

Experiments:
VEGFR = VEGFR enzyme inhibition; format: biochemical
WSU = assay: Anti-tumor activity, WSU xenograft model; format: in vivo
[1] = tested on: PHTX-95L primary DLBCL tumor xenografts; assay: Anti-tumor activity, PHTX-95L xenograft model; format: in vivo, SCID mice
Text: (§1) Mean tumor volumes (mm^3) ± SEM (N=8/group) are shown where treatment was initiated when mean tumor volume was approximately 200 mm3.

[2] = tested on: OCI-LY19 GCB DLBCL xenografts; assay: Anti-tumor activity, OCI-LY19 xenograft model; format: in vivo, SCID mice
Text: as §1

[3] = tested on: OCI-LY10 ABC DLBCL xenografts; assay: Anti-tumor activity, OCI-LY10 xenograft model; format: in vivo, SCID mice
Text: as §1

HBL-1 (ABC) = assay: Anti-tumor activity, HBL-1 xenograft model; format: in vivo
TMD8 (ABC) = assay: Anti-tumor activity, TMD8 xenograft model; format: in vivo; details: 60 mg/kg; TGI calculated on Day 14
DLBCL cell lines = assay: Inhibition of cellular proliferation; format: cell-based; details: subset of relevant models
[4] = daily oral administration of 60 mg/kg
[5] = 60 mg/kg orally once daily for 21 days
[6] = 120 mg/kg orally once daily for 21 days

Q: Which IC50 (VEGFR) does the source give for `Cn1cc(-c2nc(N[C@@H]3CCCC[C@@H]3N)c(F)c3c2C(=O)NC3)cn1` [Compound A, 6-((1R,2S)-2-Aminocyclohexylamino)-7-fluoro-4-(1-methyl-1H-pyrazol-4-yl)-1H-pyrrolo[3,4-c]pyridin-3(2H)-one] here?
A: The IC50 was 140 nM.

Q: What about the TGI (WSU; 60 mg/kg) of the same compound?
A: The TGI was 52%.

Q: And the TGI (WSU; [4])?
A: Its TGI is “approximately 50%”.

Q: And the TGI [1, 5]?
A: The TGI was 56%.

Q: What about the TGI [1, 6] of the same compound?
A: The TGI was 70%.

Q: What about the TGI ([1]; daily oral administration, 120 mg/kg) of the same compound?
A: The TGI was 70%.

Q: And the TGI ([2]; 60 mg/kg orally once daily for 14 days, TGI calculated on Day 16)?
A: Its TGI is 33%**.

Q: What about the TGI [2, 4] of the same compound?
A: Its TGI is 37%.

Q: And the TGI [3, 5]?
A: The TGI was 50%.

Q: And the TGI [3, 6]?
A: Its TGI is 59%.

Q: And the TGI [3, 4]?
A: The TGI was 50%.

Q: What about the TGI (HBL-1 (ABC); 60 mg/kg) of the same compound?
A: The TGI was 32%.

Q: What about the TGI (HBL-1 (ABC); 120 mg/kg) of the same compound?
A: The TGI was 36%.

Q: What about the TGI (TMD8 (ABC)) of the same compound?
A: The TGI was 45%*.

Q: What about the EC50 (DLBCL cell lines) of the same compound?
A: The EC50 was 25 to 400 nM.
